Like-named read-outs stand apart in the source and are kept apart here.
Tested on: Angiotensin II (AII) vasopressor response
Assay: AII Challenge: antagonism of angiotensin II vasopressor response in conscious spontaneously hypertensive rats
Assay type: in vivo, rat (male okamoto-Aoki SHR)
Conditions: for inhibition in vivo at 3 mg/kg: Rattus norvegicus, read-out: Inhibition; for inhibition in vivo at 3 mg/kg / Average Change: SHR n=2; for Change: single SHR
Procedure, shortened: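 Read-out is the systolic pressure increase (mmHg) to i.v. angiotensin II, 0.05 and 0.1 ug/kg, compared pre- and post-dose in restrained, conscious spontaneously hypertensive male rats. Compounds administered orally, i.p. or i.v.; arterial cannula inserted under local anaesthesia.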

[1] = 3 mg/kg I.V., AII 0.05 mcg/kg IV, 30 min post dose
[2] = 3 mg/kg I.V., AII 0.05 mcg/kg IV, 60 min post dose
[3] = 3 mg/kg I.V., AII 0.1 mcg/kg IV, 300 min post dose
[4] = 3 mg/kg P.O., AII 0.05 mcg/kg IV, 30 min post dose
[5] = 3 mg/kg P.O., AII 0.1 mcg/kg IV, 30 min post dose

CCCCc1nc2ccc([C@H]3[C@@H]4C(=O)OC[C@@H]4ON3Cc3ccccc3)cc2c(=O)n1Cc1ccc(-c2ccccc2-c2nnn[nH]2)cc1 (relative stereo) [Example 57]
inhibition in vivo at 3 mg/kg (iv, 0.5 h, 3 mg/kg I.V., AII 0.05 mcg/kg IV, 30 min post dose): 100% | inhibition in vivo at 3 mg/kg (iv, 0.5 h, 3 mg/kg I.V., AII 0.1 mcg/kg IV, 30 min post dose): 99% | inhibition in vivo at 3 mg/kg (iv, 1 h, 3 mg/kg I.V., AII 0.05 mcg/kg IV, 60 min post dose): 100% | inhibition in vivo at 3 mg/kg (iv, 1 h, 3 mg/kg I.V., AII 0.1 mcg/kg IV, 60 min post dose): 88% | inhibition in vivo at 3 mg/kg (iv, 2 h, 3 mg/kg I.V., AII 0.05 mcg/kg IV, 120 min post dose): 90% | inhibition in vivo at 3 mg/kg (iv, 2 h, 3 mg/kg I.V., AII 0.1 mcg/kg IV, 120 min post dose): 81% | inhibition in vivo at 3 mg/kg (iv, 3 h, 3 mg/kg I.V., AII 0.05 mcg/kg IV, 180 min post dose): 61% | inhibition in vivo at 3 mg/kg (iv, 3 h, 3 mg/kg I.V., AII 0.1 mcg/kg IV, 180 min post dose): 75% | inhibition in vivo at 3 mg/kg (iv, 4 h, 3 mg/kg I.V., AII 0.05 mcg/kg IV, 240 min post dose): 77% | inhibition in vivo at 3 mg/kg (iv, 4 h, 3 mg/kg I.V., AII 0.1 mcg/kg IV, 240 min post dose): 56% | inhibition in vivo at 3 mg/kg (iv, 5 h, 3 mg/kg I.V., AII 0.05 mcg/kg IV, 300 min post dose): 71% | inhibition in vivo at 3 mg/kg (iv, 5 h, 3 mg/kg I.V., AII 0.1 mcg/kg IV, 300 min post dose): 38% | inhibition in vivo at 3 mg/kg (iv, […], 3 mg/kg I.V., AII 0.05 mcg/kg IV, 90 min post dose): 93% | inhibition in vivo at 3 mg/kg (iv, […], 3 mg/kg I.V., AII 0.1 mcg/kg IV, 90 min post dose): 75% | inhibition in vivo at 3 mg/kg (po, 0.5 h, 3 mg/kg P.O., AII 0.05 mcg/kg IV, 30 min post dose): 34% | inhibition in vivo at 3 mg/kg (po, 0.5 h, 3 mg/kg P.O., AII 0.1 mcg/kg IV, 30 min post dose): 37% | inhibition in vivo at 3 mg/kg (po, 1 h, 3 mg/kg P.O., AII 0.05 mcg/kg IV, 60 min post dose): 67% | inhibition in vivo at 3 mg/kg (po, 1 h, 3 mg/kg P.O., AII 0.1 mcg/kg IV, 60 min post dose): 53% | inhibition in vivo at 3 mg/kg (po, 2 h, 3 mg/kg P.O., AII 0.05 mcg/kg IV, 120 min post dose): 41% | inhibition in vivo at 3 mg/kg (po, 2 h, 3 mg/kg P.O., AII 0.1 mcg/kg IV, 120 min post dose): 63% | inhibition in vivo at 3 mg/kg (po, 3 h, 3 mg/kg P.O., AII 0.05 mcg/kg IV, 180 min post dose): 11% | inhibition in vivo at 3 mg/kg (po, 3 h, 3 mg/kg P.O., AII 0.1 mcg/kg IV, 180 min post dose): 53% | inhibition in vivo at 3 mg/kg (po, […], 3 mg/kg P.O., AII 0.05 mcg/kg IV, 90 min post dose): 47% | inhibition in vivo at 3 mg/kg (po, […], 3 mg/kg P.O., AII 0.1 mcg/kg IV, 90 min post dose): 47% | Average Change [1]: 0 mmHg | Average Change [2]: 0 mmHg | Average Change (3 mg/kg I.V., AII 0.05 mcg/kg IV, 90 min post dose): 2.5 mmHg | Average Change (3 mg/kg I.V., AII 0.05 mcg/kg IV, 120 min post dose): 3.5 mmHg | Average Change (3 mg/kg I.V., AII 0.05 mcg/kg IV, 180 min post dose): 13.5 mmHg | Average Change (3 mg/kg I.V., AII 0.05 mcg/kg IV, 240 min post dose): 8 mmHg | Average Change (3 mg/kg I.V., AII 0.05 mcg/kg IV, 300 min post dose): 10 mmHg | Average Change (3 mg/kg I.V., AII 0.1 mcg/kg IV, 30 min post dose): 0.5 mmHg | Average Change (3 mg/kg I.V., AII 0.1 mcg/kg IV, 60 min post dose): 5 mmHg | Average Change (3 mg/kg I.V., AII 0.1 mcg/kg IV, 90 min post dose): 10 mmHg | Average Change (3 mg/kg I.V., AII 0.1 mcg/kg IV, 120 min post dose): 7.5 mmHg | Average Change (3 mg/kg I.V., AII 0.1 mcg/kg IV, 180 min post dose): 10 mmHg | Average Change (3 mg/kg I.V., AII 0.1 mcg/kg IV, 240 min post dose): 17.5 mmHg | Average Change [3]: 25 mmHg | Average Change [4]: 25 mmHg | Average Change (3 mg/kg P.O., AII 0.05 mcg/kg IV, 60 min post dose): 12.5 mmHg | Average Change (3 mg/kg P.O., AII 0.05 mcg/kg IV, 90 min post dose): 20 mmHg | Average Change (3 mg/kg P.O., AII 0.05 mcg/kg IV, 120 min post dose): 22.5 mmHg | Average Change (3 mg/kg P.O., AII 0.05 mcg/kg IV, 180 min post dose): 34 mmHg | Average Change [5]: 30 mmHg | Average Change (3 mg/kg P.O., AII 0.1 mcg/kg IV, 60 min post dose): 22.5 mmHg | Average Change (3 mg/kg P.O., AII 0.1 mcg/kg IV, 90 min post dose): 25 mmHg | Average Change (3 mg/kg P.O., AII 0.1 mcg/kg IV, 120 min post dose): 17.5 mmHg | Average Change (3 mg/kg P.O., AII 0.1 mcg/kg IV, 180 min post dose): 22.5 mmHg | Change [1]: 0 mmHg | Change [2]: 0 mmHg | Change [3]: 25 mmHg | Change [4]: 25 mmHg | Change [5]: 30 mmHg

— patent publication US5294611A, “Angiotensin II receptor blocking 2,3,6 substituted quinazolinones” (American Cyanamid Company, priority 1993, dated 1994)
